From patent US12590062B2, “PD-1/PD-L1 inhibitors” (Gilead Sciences, Inc., priority 2017, dated 2026)

Columns and labels:
PD-1/PD-L1 = PD-1/PD-L1 (Homo sapiens, UniProt Q9NZQ7); experiment: PD-1/PD-L1 biochemical protein-protein interaction assay (ALPHA); assay type: binding; conditions: 0.3 nM His tagged PD-L1, 2.5 nM biotinylated Fc-PD-1, 60 minutes at 25° C., read-out: IC50 PD-L1-PD-1 Alpha IC50-mono PD-L1-fcP-D1
Summary of the method: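 Bead proximity read-out: compound-driven loss of ALPHA signal between anti-His acceptor and streptavidin donor beads (20 μg/mL acceptor). Proteins: 0.3 nM His-PD-L1, 2.5 nM biotin-Fc-PD-1, final. 60 min, 25° C, Hepes pH 7.4 buffer. IC50 via four-parameter dose-response fit.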

PD-1/PD-L1 interaction = target: T1, PD-1/PD-L1 interaction (Homo sapiens, UniProt Q9NZQ7); experiment: PD-1/PD-L1 NFAT reporter co-culture assay; assay type: cell-based; conditions: Jurkat PD-1 NFAT-luciferase cells co-cultured with aAPC-PD-L1 CHO cells, 6 hrs at 37° C.; read-out: EC50 NFAT Luciferase
T1 construct: expressed in transfected cells; host or cells: CHO cells (aAPC-PD-L1) co-cultured with Jurkat cells overexpressing PD-1 and an NFAT-luciferase reporter
T1 sequence (Q9NZQ7 19-290): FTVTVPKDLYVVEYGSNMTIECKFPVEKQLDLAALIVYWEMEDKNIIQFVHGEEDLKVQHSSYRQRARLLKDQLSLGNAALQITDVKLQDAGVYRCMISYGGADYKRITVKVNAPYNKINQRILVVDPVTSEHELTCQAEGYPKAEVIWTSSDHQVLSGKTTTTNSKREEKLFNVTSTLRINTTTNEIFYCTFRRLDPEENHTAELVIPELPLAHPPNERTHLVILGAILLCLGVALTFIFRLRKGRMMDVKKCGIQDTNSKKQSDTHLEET
Summary of the method: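 Compounds are scored by restoration of NFAT-luciferase signal in PD-1-expressing Jurkat cells cultured 6 h at 37 °C on CHO cells presenting anti-CD3 and PD-L1; EC50 values derive from four-parameter curve fitting.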

PD-1/PD-L1, sequence (Q9NZQ7 19-238 limits assumed): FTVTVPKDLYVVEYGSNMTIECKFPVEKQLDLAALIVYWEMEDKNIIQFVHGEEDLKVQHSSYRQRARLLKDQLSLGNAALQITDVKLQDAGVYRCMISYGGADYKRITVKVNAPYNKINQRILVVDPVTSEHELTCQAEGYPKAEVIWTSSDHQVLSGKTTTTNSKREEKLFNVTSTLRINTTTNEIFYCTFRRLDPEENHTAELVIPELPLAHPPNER

| Structure (SMILES) | IC50 (PD-1/PD-L1) | EC50 (PD-1/PD-L1 interaction) |
| --- | --- | --- |
| Cc1c(COc2ccc(CNC[C@@H](O)CC(=O)O)c(OCCN3CCOCC3)n2)cccc1-c1cccc(COc2ccc(CNC[C@@H](O)CC(=O)O)c(OCCN3CCOCC3)n2)c1C [Example 158, (3S,3′S)-4,4′-((((((2,2′-dimethyl-[1,1′-biphenyl]-3,3′-diyl)bis(methylene))bis(oxy))bis(2-(2-morpholinoethoxy)pyridine-6,3-diyl))bis(methylene))bis(azanediyl))bis(3-hydroxybutanoic acid)] | 2 nM | 28100 nM |
| Cc1c(COc2cc(OCc3cncc(C#N)c3)c(CNCc3nnn[nH]3)cc2Cl)cccc1-c1cccc(COc2cc(OCc3cncc(C#N)c3)c(CNCc3nnn[nH]3)cc2Cl)c1C [Example 163, 5,5′-((((((2,2′-dimethyl-[1,1′-biphenyl]-3,3′-diyl)bis(methylene))bis(oxy))bis(6-((((1H-tetrazol-5-yl)methyl)amino)methyl)-4-chloro-3,1-phenylene))bis(oxy))bis(methylene))dinicotinonitrile] | 0.6 nM | 343 nM |
| Cc1c(COc2ccc(CNC[C@@H](O)CC(=O)O)cc2C#N)cccc1-c1cccc(COc2ccc(CNC[C@@H](O)CC(=O)O)cc2C#N)c1C [Example 177, (3S,3′S)-4,4′-((((((2,2′-dimethyl-[1,1′-biphenyl]-3,3′-diyl)bis(methylene))bis(oxy))bis(3-cyano-4,1-phenylene))bis(methylene))bis(azanediyl))bis(3-hydroxybutanoic acid)] | 0.1 nM | 20600 nM |
| COc1nc(OCc2cccc(-c3cccc(COc4ccc(CNC[C@@H](O)CC(=O)O)c(OC)n4)c3Cl)c2Cl)ccc1CNC[C@@H](O)CC(=O)O [Example 187, (3S,3′S)-4,4′-((((((2,2′-Dichloro-[1,1′-biphenyl]-3,3′-diyl)bis(methylene))bis(oxy))bis(2-methoxypyridine-6,3-diyl))bis(methylene))bis(azanediyl))bis(3-hydroxybutanoic acid)] | 0.6 nM | 3200 nM |
| Cc1c(COc2cc(OCc3cncc(C#N)c3)c(CNCCO)cc2Cl)cccc1-c1cccc(COc2cc(OCc3ccc(F)c(C#N)c3)c(CNCCO)cc2Cl)c1C [Example 200, 5-((4-Chloro-5-((3′-((2-chloro-5-((3-cyano-4-fluorobenzyl)oxy)-4-(((2-hydroxyethyl)amino)methyl)phenoxy)methyl)-2,2′-dimethyl-[1,1′-biphenyl]-3-yl)methoxy)-2-(((2-hydroxyethyl)amino)methyl)phenoxy)methyl)nicotinonitrile] | 138 nM | 893 nM |
| COc1nc(OCc2cccc(-c3cccc(COc4cc(OCc5cncc(C#N)c5)c(CNC[C@@H](O)CC(=O)O)cc4Cl)c3C)c2C)ccc1CNCCO [Example 202, (S)-4-((5-Chloro-2-((5-cyanopyridin-3-yl)methoxy)-4-((3′-(((5-(((2-hydroxyethyl)amino)methyl)-6-methoxypyridin-2-yl)oxy)methyl)-2,2′-dimethyl-[1,1′-biphenyl]-3-yl)methoxy)benzyl)amino)-3-hydroxybutanoic acid] | 3.2 nM | 1920 nM |
| Cc1c(COc2cc(OCc3cncc(C#N)c3)c(CNCCO)cc2Cl)cccc1-c1cccc(COc2cc(OCc3cncc(C#N)c3)c(CNC[C@@H](O)CC(=O)O)cc2Cl)c1C [Example 207, (S)-4-((5-Chloro-4-((3′-((2-chloro-5-((5-cyanopyridin-3-yl)methoxy)-4-(((2-hydroxyethyl)amino)methyl)phenoxy)methyl)-2,2′-dimethyl-[1,1′-biphenyl]-3-yl)methoxy)-2-((5-cyanopyridin-3-yl)methoxy)benzyl)amino)-3-hydroxybutanoic acid] | 2 nM | 1550 nM |

Continued by falling IC50 (PD-1/PD-L1), values first:

| IC50 (PD-1/PD-L1) | EC50 (PD-1/PD-L1 interaction) | Structure (SMILES) |
| --- | --- | --- |
| 188 nM | 2150 nM | Cc1c(COc2cc(OCc3cncc(C#N)c3)c(CNCCO)cc2Cl)cccc1-c1cccc(COc2cc(OCC3CC3)c(CNCCO)cc2Cl)c1C [Example 199, 5-((4-Chloro-5-((3′-((2-chloro-5-(cyclopropylmethoxy)-4-(((2-hydroxyethyl)amino)methyl)phenoxy)methyl)-2,2′-dimethyl-[1,1′-biphenyl]-3-yl)methoxy)-2-(((2-hydroxyethyl)amino)methyl)phenoxy)methyl)nicotinonitrile] |
| 31.2 nM | 1110 nM | COc1nc(OCc2cccc(-c3cccc(COc4cc(OCc5cncc(C#N)c5)c(CNCCO)cc4Cl)c3C)c2C)ccc1CNCCO [Example 201, 5-((4-Chloro-2-(((2-hydroxyethyl)amino)methyl)-5-((3′-(((5-(((2-hydroxyethyl)amino)methyl)-6-methoxypyridin-2-yl)oxy)methyl)-2,2′-dimethyl-[1,1′-biphenyl]-3-yl)methoxy)phenoxy)methyl)nicotinonitrile] |
| 25.7 nM | 927 nM | Cc1c(COc2cc(OCc3cncc(C#N)c3)c(CNCCO)cc2Cl)cccc1-c1cccc(COc2ccc(CNCCO)cc2C(F)(F)F)c1C [Example 204, 5-((4-Chloro-2-(((2-hydroxyethyl)amino)methyl)-5-((3′-((4-(((2-hydroxyethyl)amino)methyl)-2-(trifluoromethyl)phenoxy)methyl)-2,2′-dimethyl-[1,1′-biphenyl]-3-yl)methoxy)phenoxy)methyl)nicotinonitrile] |
| 18.8 nM | 1510 nM | COc1nc(OCc2cccc(-c3cccc(COc4ccc(CNCCO)c(OC)n4)c3Cl)c2Cl)ccc1CNCCO [Example 186, 2,2′-((((((2,2′-Dichloro-[1,1′-biphenyl]-3,3′-diyl)bis(methylene))bis(oxy))bis(2-methoxypyridine-6,3-diyl))bis(methylene))bis(azanediyl))bis(ethan-1-ol)] |
| 4.6 nM | 24800 nM | COc1cc(C(=O)N2CCc3c(-c4cccc5c4CCN5C(=O)c4ccc(CNC[C@@H](O)CC(=O)O)c(OC)c4)cccc32)ccc1CNC[C@@H](O)CC(=O)O [Example 180, (3S,3′S)-4,4′-(((([4,4′-biindoline]-1,1′-dicarbonyl)bis(2-methoxy-4,1-phenylene))bis(methylene))bis(azanediyl))bis(3-hydroxybutanoic acid)] |
| 3.8 nM | ≥ 50000 nM | Cc1c(COc2nc(OCC(F)(F)F)c(CNC[C@@H](O)CC(=O)O)cc2Br)cccc1-c1cccc(COc2nc(OCC(F)(F)F)c(CNC[C@@H](O)CC(=O)O)cc2Br)c1C [Example 154, (3S,3′S)-4,4′-((((((2,2′-dimethyl-[1,1′-biphenyl]-3,3′-diyl)bis(methylene))bis(oxy))bis(5-bromo-2-(2,2,2-trifluoroethoxy)pyridine-6,3-diyl))bis(methylene))bis(azanediyl))bis(3-hydroxybutanoic acid)] |
| 3.3 nM | 30900 nM | O=C(O)C[C@H](O)CNCc1ccc(C(=O)N2CCc3c(-c4cccc5c4CCN5C(=O)c4ccc(CNC[C@@H](O)CC(=O)O)cc4)cccc32)cc1 [Example 181, (3S,3′S)-4,4′-(((([4,4′-biindoline]-1,1′-dicarbonyl)bis(4,1-phenylene))bis(methylene))bis(azanediyl))bis(3-hydroxybutanoic acid)] |
| 2.8 nM | 310 nM | Cc1c(COc2cc(OCc3cncc(C#N)c3)c(CNC[C@@H](O)C(=O)O)cc2Cl)cccc1-c1cccc(COc2cc(OCc3cncc(C#N)c3)c(CNC[C@@H](O)C(=O)O)cc2Cl)c1C [Example 161, (2R,2′R)-3,3′-((((((2,2′-dimethyl-[1,1′-biphenyl]-3,3′-diyl)bis(methylene))bis(oxy))bis(5-chloro-2-((5-cyanopyridin-3-yl)methoxy)-4,1-phenylene))bis(methylene))bis(azanediyl))bis(2-hydroxypropanoic acid)] |
| 2.3 nM | 34200 nM | Cc1nc(OCc2cccc(-c3cccc(COc4ccc(CNC[C@@H](O)CC(=O)O)c(C)n4)c3C)c2C)ccc1CNC[C@@H](O)CC(=O)O [Example 156, (3S,3′S)-4,4′-((((((2,2′-dimethyl-[1,1′-biphenyl]-3,3′-diyl)bis(methylene))bis(oxy))bis(2-methylpyridine-6,3-diyl))bis(methylene))bis(azanediyl))bis(3-hydroxybutanoic acid)] |
| 0.3 nM | 1550 nM | COc1nc(OCc2cccc(-c3cccc(COc4ccc(CNC[C@H](O)CC(=O)O)c(OC)n4)c3Cl)c2Cl)ccc1CNC[C@H](O)CC(=O)O [Example 188, (3R,3′R)-4,4′-((((((2,2′-Dichloro-[1,1′-biphenyl]-3,3′-diyl)bis(methylene))bis(oxy))bis(2-methoxypyridine-6,3-diyl))bis(methylene))bis(azanediyl))bis(3-hydroxybutanoic acid)] |
| 0.2 nM | 500 nM | Cc1c(COc2cc(OCc3cncc(C#N)c3)c(CNCCCC(=O)O)cc2Cl)cccc1-c1cccc(COc2cc(OCc3cncc(C#N)c3)c(CNCCCC(=O)O)cc2Cl)c1C [Example 164, 4,4′-((((((2,2′-dimethyl-[1,1′-biphenyl]-3,3′-diyl)bis(methylene))bis(oxy))bis(5-chloro-2-((5-cyanopyridin-3-yl)methoxy)-4,1-phenylene))bis(methylene))bis(azanediyl))dibutyric acid] |
